Experimental data from patent US7928135B2, “Benzene, pyridine, and pyridazine derivatives” (Serenex, Inc., priority 2005, dated 2011).

Tests used:
[1] = tested on: PC-3 cell proliferation; experiment: Cell proliferation assay (WST-1), PC-3; assay type: cell-based; conditions: Homo sapiens; PC-3 cells, WST-1 readout; read-out: inhibitory activity against PC-3 cell proliferation (IC50 range)
Protocol: A panel of cancer cell lines was obtained from the DCTP Tumor Repository, National Cancer Institute (Frederick, Md.) or ATCC (Rockville, Md.). Cell cultures were maintained in Hyclone RPMI 1640 medium (Logan, Utah) supplemented with 10% fetal bovine serum and 20 mM HEPES buffer, final pH 7.2, at 37° C. with a 5% CO2 atmosphere. Cultures were maintained at sub-confluent densities. Human umbilical vein endothelial cells (HUVEC) were purchased from Clonetics, a division of Cambrex (Walkersville, Md.). Cultures were established from cryopreserved stocks using Clonetics EGM-2 medium supplemented with 20 mM HEPES, final pH 7.2, at 37° C. with a 5% CO2 atmosphere.
For proliferation assays, cells were seeded with the appropriate medium into 96 well plates at 1,000-2,500 cells per well, depending on the cell line, and were incubated overnight. The following day, test compound, DMSO solution (negative control), or Actinomycin D (positive control) was added to the appropriate wells as 10× concentrated stocks prepared in phosphate buffered saline. The cell plates were then incubated for an additional 2-5 days, depending on the cell line, to allow proliferation to occur. To measure cell density, 50 μL of WST-1 solution (Roche Applied Science, Ind.) diluted 1:5 in phosphate buffered saline was added to each well, and the cells incubated for an additional 1-5 hrs., again depending on the cell line. Optical density was determined for each well at […] using a Tecan GeniosPro plate reader (RTP, NC). The percentage of cell growth was determined by comparing the cell growth in the presence of test compounds to the cells treated with DMSO vehicle (control, 100% growth) and cells treated with Actinomycin D (10 μM, 0% growth). […]

[2] = tested on: HSP-90 (heat shock protein 90); experiment: Determination of affinity for HSP-90 (elution from purine affinity column, SDS-PAGE densitometry); assay type: binding; set-up: key: +++: very high; ++: high; +: moderate; conditions: elution of HSP-90 from purine affinity column with 20, 100 and 500 μM test compound
Protocol: Affinity of test compounds for HSP-90 was determined as follows: Protein mixtures obtained from a variety of organ tissues (for example: spleen, liver and lung) were reversibly bound to a purine affinity column to capture purine-binding proteins, especially HSP-90. The purine affinity column was washed several times, and then eluted with 20 μM, 100 μM, and 500 μM of test compound. Compounds of Formula I elute HP-90 in a dose-dependent manner vs. a control elution using dimethylsulfoxide. The elution profile of Formula I compounds was determined by 1-dimensional SDS polyacrylamide gel electrophoresis. Gels were stained with a fluorescent stain such as sypro ruby (a highly sensitive fluorescent protein stain that can readily detect less than 1 fmol of total protein, i.e., less than 0.04 ng for a 40 kDa protein) or silver nitrate. The gels were imaged using a standard flat bed gel imager and the amount of protein estimated by densitometry. The percent of HSP-90 protein eluted from the column at each concentration was determined and IC50 values were calculated from these estimates. The identity of a band containing HSP-90 was determined by protein sequencing using mass spectroscopy.
Compounds of the invention are inhibitors of HSP-90 (heat shock protein 90). Several exemplary compounds useful in the methods of the invention are listed below.

IC50 [1] [µM] | relative binding affinity to HSP-90 [2] | Compound
< 0.5 | +++ | CC(=O)Nc1cc(-n2cc(C)c3c2CC(C)(C)CC3=O)ccc1C(N)=O [Compound 98, 2-(acetylamino)-4-(3,6,6-trimethyl-4-oxo-4,5,6,7-tetrahydro-1H-indol-1-yl)benzamide]
5 to 50 | ++ | Cc1cn(-c2ccc(C(N)=O)c(N3CCN(C)CC3)c2)c2c1C(=O)CC(C)(C)C2 [Compound 99, 2-(4-methylpiperazin-1-yl)-4-(3,6,6-trimethyl-4-oxo-4,5,6,7-tetrahydro-1H-indol-1-yl)benzamide]
5 to 50 | ++ | CCc1cc(-n2nc(C)c3c2CC(C)(C)CC3=O)ccc1C(N)=O [Compound 102, 2-ethyl-4-(3,6,6-trimethyl-4-oxo-4,5,6,7-tetrahydro-1H-indazol-1-yl)benzamide]
0.5 to 5 | ++ | CCCCSc1cc(-n2nc(C)c3c2CC(C)(C)CC3=O)ccc1C(N)=O [Compound 103, 2-(butylthio)-4-(3,6,6-trimethyl-4-oxo-4,5,6,7-tetrahydro-1H-indazol-1-yl)benzamide]
5 to 50 | ++ | Cc1cn(-c2ccc(C(N)=O)c(Sc3ccncc3)c2)c2c1C(=O)CC(C)(C)C2 [Compound 105, 2-(pyridin-4-ylthio)-4-(3,6,6-trimethyl-4-oxo-4,5,6,7-tetrahydro-1H-indol-1-yl)benzamide]
– | ++ | COc1cc(Nc2cc(-n3nc(C(F)(F)F)c4c3CC(C)(C)CC4=O)ccc2C(N)=O)cc(OC)c1OC [Compound 107, 4-[6,6-dimethyl-4-oxo-3-(trifluoromethyl)-4,5,6,7-tetrahydro-1H-indazol-1-yl]-2-[(3,4,5-trimethoxyphenyl)amino]benzamide]
– | ++ | Cc1cn(-c2ccc(C(N)=O)c(NC3CCN(C(=O)CN(C)C)CC3)c2)c2c1C(=O)CC(C)(C)C2 [Compound 109, 2-{[1-(N,N-dimethylglycyl)piperidin-4-yl]amino}-4-(3,6,6-trimethyl-4-oxo-4,5,6,7-tetrahydro-1H-indol-1-yl)benzamide]
– | +++ | CC(=O)OCC(=O)NCCNc1cc(-n2cc(C)c3c2CC(C)(C)CC3=O)ccc1C(N)=O [Compound 111, 2-[(2-{[2-(aminocarbonyl)-5-(3,6,6-trimethyl-4-oxo-4,5,6,7-tetrahydro-1H-indol-1-yl)phenyl]amino}ethyl)amino]-2-oxoethyl acetate]
– | +++ | Cc1nn(-c2ccc(C(N)=O)c(Nc3ccc(=O)[nH]c3)c2)c2c1C(=O)CC(C)(C)C2 [Compound 115, 2-[(6-oxo-1,6-dihydropyridin-3-yl)amino]-4-(3,6,6-trimethyl-4-oxo-4,5,6,7-tetrahydro-1H-indazol-1-yl)benzamide]
< 0.5 | +++ | Cc1nn(-c2ccc(C(N)=O)c(NC3CCC3)c2)c2c1C(=O)CC(C)(C)C2 [Compound 117, 2-(cyclobutylamino)-4-(3,6,6-trimethyl-4-oxo-4,5,6,7-tetrahydro-1H-indazol-1-yl)benzamide]
0.5 to 5 | +++ | Cc1nn(-c2ccc(C(N)=O)c(NC(CCO)CCO)c2)c2c1C(=O)CC(C)(C)C2 [Compound 121, 2-{[3-hydroxy-1-(2-hydroxyethyl)propyl]amino}-4-(3,6,6-trimethyl-4-oxo-4,5,6,7-tetrahydro-1H-indazol-1-yl)benzamide]
– | ++ | Cc1nn(-c2ccc(C(N)=O)c(NC3CN(S(C)(=O)=O)C3)c2)c2c1C(=O)CC(C)(C)C2 [Compound 131, 2-{[1-(methylsulfonyl)azetidin-3-yl]amino}-4-(3,6,6-trimethyl-4-oxo-4,5,6,7-tetrahydro-1H-indazol-1-yl)benzamide]
– | +++ | Cc1nn(-c2ccc(C(N)=O)c(NCCCS(C)(=O)=O)c2)c2c1C(=O)CC(C)(C)C2 [Compound 132, 2-{[3-(methylsulfonyl)propyl]amino}-4-(3,6,6-trimethyl-4-oxo-4,5,6,7-tetrahydro-1H-indazol-1-yl)benzamide]
5 to 50 | ++ | CC1(C)CC(=O)c2c(C(F)(F)F)nn(-c3ccc(C(N)=O)c(NCCNS(C)(=O)=O)c3)c2C1 [Compound 133, 4-[6,6-dimethyl-4-oxo-3-(trifluoromethyl)-4,5,6,7-tetrahydro-1H-indazol-1-yl]-2-({2-[(methylsulfonyl)amino]ethyl}amino)benzamide]
– | ++ | C=CCCc1nn(-c2ccc(C(N)=O)cc2)c2c1C(=O)CC(C)(C)C2 [Compound 134, 4-(3-but-3-en-1-yl-6,6-dimethyl-4-oxo-4,5,6,7-tetrahydro-1H-indazol-1-yl)benzamide]
– | +++ | Cc1nn(-c2ccc(C(N)=O)c(N[C@H]3CCN(S(C)(=O)=O)C3)c2)c2c1C(=O)CC(C)(C)C2 [Compound 135, 2-{[(3S)-1-(methylsulfonyl)pyrrolidin-3-yl]amino}-4-(3,6,6-trimethyl-4-oxo-4,5,6,7-tetrahydro-1H-indazol-1-yl)benzamide]

Continued, compound first:

Compound | IC50 [1] [µM] | relative binding affinity to HSP-90 [2]
CCCCOc1cc(C(N)=O)ccc1-n1cc(C)c2c1CC(C)(C)CC2=O [Compound 53, 3-butoxy-4-(3,6,6-trimethyl-4-oxo-4,5,6,7-tetrahydroindol-1-yl)benzamide] | 5 to 50 | ++
Cc1cn(-c2ccc(C(N)=O)c(NC(N)=O)c2)c2c1C(=O)CC(C)(C)C2 [Compound 55, 1-(2-carbamoyl-5-(3,6,6-trimethyl-4-oxo-4,5,6,7-tetrahydroindol-1-yl)phenyl)urea] | 0.5 to 5 | ++
Cc1cc2c(n1-c1ccc(C(N)=O)cc1-c1ccsc1)CC(C)(C)CC2=O [Compound 70, 3-(3-thienyl)-4-(2,6,6-trimethyl-4-oxo-4,5,6,7-tetrahydro-1H-indol-1-yl)benzamide] | 5 to 50 | +
COc1cc(Nc2cc(-n3c(C)cc4c3CC(C)(C)CC4=O)ccc2C(N)=O)cc(OC)c1OC [Compound 76, 2-[(3,4,5-trimethoxyphenyl)amino]-4-(2,6,6-trimethyl-4-oxo-4,5,6,7-tetrahydro-1H-indol-1-yl)benzamide] | 0.5 to 5 | +++
Cc1cc2c(n1-c1ccc(C(N)=O)c(-c3ccncc3)c1)CC(C)(C)CC2=O [Compound 77, 2-pyridin-4-yl-4-(2,6,6-trimethyl-4-oxo-4,5,6,7-tetrahydro-1H-indol-1-yl)benzamide] | 5 to 50 | ++
C=CCNc1cc(-n2ccc3c2CCCC3=O)ccc1C(N)=O [Compound 88, 2-(allylamino)-4-(4-oxo-4,5,6,7-tetrahydro-1H-indol-1-yl)benzamide] | – | ++
C=CCNc1cc(-n2c(C)c(C)c3c2CCCC3=O)ccc1C(N)=O [Compound 91, 2-(allylamino)-4-(2,3-dimethyl-4-oxo-4,5,6,7-tetrahydro-1H-indol-1-yl)benzamide] | – | ++
COCCNc1cc(-n2c(C)c(C)c3c2CCCC3=O)ccc1C(N)=O [Compound 92, 4-(2,3-dimethyl-4-oxo-4,5,6,7-tetrahydro-1H-indol-1-yl)-2-[(2-methoxyethyl)amino]benzamide] | – | ++
Cc1cc2c(n1-c1ccc(C(N)=O)c(NN3CCOCC3)c1)CC(C)(C)CC2=O [Compound 94, 2-(morpholin-4-ylamino)-4-(2,6,6-trimethyl-4-oxo-4,5,6,7-tetrahydro-1H-indol-1-yl)benzamide] | 5 to 50 | ++
COCCNc1cc(-n2nc(C)c3c2CC(C)(C)CC3=O)ccc1C(N)=O [Compound 95, 2-[(2-methoxyethyl)amino]-4-(3,6,6-trimethyl-4-oxo-4,5,6,7-tetrahydro-1H-indazol-1-yl)benzamide] | – | +++
Cc1cn(-c2ccc(C(N)=O)c(NCCN3CCOCC3)c2)c2c1C(=O)CC(C)(C)C2 [Compound 96, 2-[(2-morpholin-4-ylethyl)amino]-4-(3,6,6-trimethyl-4-oxo-4,5,6,7-tetrahydro-1H-indol-1-yl)benzamide] | – | +++
